Patent US5395823A, “Neuropeptide Y agonists and partial agonists” (Merrell Dow Pharmaceuticals Inc., priority 1993, dated 1995)

Target: receptors for neuropeptide Y (porcine spleen crude membranes)
Assay: 125I-Bolton-Hunter-neuropeptide Y binding in porcine spleen crude membranes
Details: competition with 0.1 nM BHNPY, room temperature 2 hr, pH 7.4
Experimental: 145:21-9 (1988). ^125 I-Bolton-Hunter-neuropeptide Y (BHNPY; Amersham) binding was carried out in porcine spleen crude membranes. Membranes from frozen spleen were prepared as described previously for tachykinin peptide binding studies (Buck et al., 1984). An aliquot of membrane preparation (approximately 15 mg tissue) was incubated at room temperature for 2 hr in buffer (pH 7.4) containing the peptide analog, 130 mM NaCl, 2.7 mM KCl, 2 mM MgCl2, 1.8 mM CaCl2, 20 mM HEPES, 4 mg/ml BSA, 40 μg/ml bacitracin, 4 μg/ml leupeptin and […] chymostatin. BHNPY was included in a concentration of 0.1 nM and non-specific binding was determined by the inclusion of 1 μM pNPY. Samples were rapidly filtered over Whatman GF/C filters presoaked overnight in 0.5% histone (type II-AS; Sigma) and washed two times with ice-cold, plain HEPES-salt buffer (pH 7.4). IC50 values for test peptides were calculated from 6 to 10 point competition curves.

IC50: < 50 nM
Substance: Y--P--S--K--P--D--N--P--G--E--D--A--P--A--E--E--L--S--Y--Y--A--A--L--R--H- -Y--L--N--L--L--T--R--Q--R--Y--# [Example 1]
